Laboratory results: patent US12441689B2 (EpiVario, Inc., priority 2019, dated 2025)

Molecular target: human ACSS2 protein (Homo sapiens (Human), UniProt Q9NR19)
Assay: ACSS2 Cell-Free Activity Assay (Cell-Free IC50)
Conditions: 10 nM human ACSS2 protein, 90 minutes at 37 C, pyrophosphatase-coupled, Biomol Green absorbance at 620 nm; read-out: ACSS2 Biochemical IC50
Text: ACSS2 Cell-Free Activity Assay (Cell-Free IC50)

human ACSS2 protein, sequence (Q9NR19 whole entry): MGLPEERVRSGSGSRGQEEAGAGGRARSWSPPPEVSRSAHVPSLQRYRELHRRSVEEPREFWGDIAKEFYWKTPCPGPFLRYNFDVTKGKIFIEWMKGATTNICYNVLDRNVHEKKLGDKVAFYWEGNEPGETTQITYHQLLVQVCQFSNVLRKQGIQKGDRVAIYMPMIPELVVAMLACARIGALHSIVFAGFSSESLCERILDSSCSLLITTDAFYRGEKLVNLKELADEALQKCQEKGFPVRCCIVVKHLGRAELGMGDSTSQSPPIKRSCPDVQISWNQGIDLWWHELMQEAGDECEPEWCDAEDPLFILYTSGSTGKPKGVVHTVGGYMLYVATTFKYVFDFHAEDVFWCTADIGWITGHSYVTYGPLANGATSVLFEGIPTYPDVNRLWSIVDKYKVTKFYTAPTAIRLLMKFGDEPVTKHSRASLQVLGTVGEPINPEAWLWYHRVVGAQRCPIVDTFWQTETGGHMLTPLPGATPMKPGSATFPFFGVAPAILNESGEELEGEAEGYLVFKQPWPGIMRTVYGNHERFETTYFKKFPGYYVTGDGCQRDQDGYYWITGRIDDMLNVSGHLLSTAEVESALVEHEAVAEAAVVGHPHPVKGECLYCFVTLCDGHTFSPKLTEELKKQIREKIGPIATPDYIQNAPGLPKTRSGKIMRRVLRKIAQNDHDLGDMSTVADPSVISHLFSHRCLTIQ

SMILES | IC50 [µM]
CCC(F)(F)c1cccc(NC(=O)c2cnc(-c3ccc(OC(F)F)c(-c4ccccc4)c3)nc2C)c1 [Compound 138, 2-[4-(difluoromethoxy)-3-phenyl-phenyl]-N-[3-(1,1-difluoropropyl)phenyl]-4-methyl-pyrimidine-5-carboxamide] | > 0.1
Cc1nc(-c2ccc(OC(F)F)c(-c3ccccc3)c2)ncc1C(=O)Nc1cccc(C(C)(F)F)c1 [Compound 139, N-[3-(1,1-difluoroethyl)phenyl]-2-[4-(difluoromethoxy)-3-phenyl-phenyl]-4-methyl-pyrimidine-5-carboxamide] | > 0.1
Cc1nc(-c2ccc(OC(F)F)cc2)oc1C(=O)Nc1cccc(C(C)(F)F)c1 [Compound 141, N-(3-(1,1-difluoroethyl)phenyl)-2-(4-(difluoromethoxy)phenyl)-4-methyloxazole-5-carboxamide] | > 0.1
COc1ccc(-c2nc(C)c(C(=O)Nc3cccc(C(C)(F)F)c3)o2)cc1 [Compound 142, N-(3-(1,1-difluoroethyl)phenyl)-2-(4-methoxyphenyl)-4-methyloxazole-5-carboxamide] | > 0.1
CCC(F)(F)c1cccc(NC(=O)c2cnc(-c3ccc(OC(F)F)cc3)nc2C)c1 [Compound 143, 2-[4-(difluoromethoxy)phenyl]-N-[3-(1,1-difluoropropyl)phenyl]-4-methyl-pyrimidine-5-carboxamide] | > 0.1
Cc1nc(-c2ccc(OC(F)F)cc2)ncc1C(=O)Nc1cccc(C(C)(F)F)c1 [Compound 144, N-[3-(1,1-difluoroethyl)phenyl]-2-[4-(difluoromethoxy)phenyl]-4-methyl-pyrimidine-5-carboxamide] | > 0.1
Cc1nn(-c2ccc(OC(F)F)cc2)c(C(C)C)c1C(=O)Nc1cccc(C(C)(F)F)c1 [Compound 146, N-[3-(1,1-difluoroethyl)phenyl]-1-[4-(difluoromethoxy)phenyl]-5-isopropyl-3-methyl-pyrazole-4-carboxamide] | > 0.1
CCc1c(C(=O)Nc2cccc(C(C)(F)F)c2)c(C)nn1-c1ccc(OC(F)F)c(-c2ccccn2)c1 [Compound 148, N-[3-(1,1-difluoroethyl)phenyl]-1-[4-(difluoromethoxy)-3-(2-pyridyl)phenyl]-5-ethyl-3-methyl-pyrazole-4-carboxamide] | > 0.1
Cc1nn(-c2ccc(OC(F)F)c(-c3cocn3)c2)cc1C(=O)Nc1cccc(C(C)(F)F)c1 [Compound 149, N-(3-(1,1-difluoroethyl)phenyl)-1-(4-(difluoromethoxy)-3-(oxazol-4-yl)phenyl)-3-methyl-1H-pyrazole-4-carboxamide] | > 0.1
Cc1nn(-c2ccc(OC(F)F)cc2)c(CC(C)C)c1C(=O)Nc1cccc(C(C)(F)F)c1 [Compound 150, N-(3-(1,1-difluoroethyl)phenyl)-1-(4-(difluoromethoxy)phenyl)-5-isobutyl-3-methyl-1H-pyrazole-4-carboxamide] | > 0.1
CCc1c(C(=O)Nc2cccc(C(C)(F)F)c2)c(C)nn1-c1ccc(OC(F)F)c(-c2ccccc2)c1 [Compound 151, N-[3-(1,1-difluoroethyl)phenyl]-1-[4-(difluoromethoxy)-3-phenyl-phenyl]-5-ethyl-3-methyl-pyrazole-4-carboxamide] | > 0.1

The remaining lines, values ahead:

IC50 [µM] | SMILES
> 0.1 | CCC(F)(F)c1cccc(NC(=O)c2cc(C)nc(-c3ccc(OC(F)F)c(-c4ccccc4)c3)n2)c1 [Compound 127, 2-(6-(difluoromethoxy)-[1,1′-biphenyl]-3-yl)-N-(3-(1,1-difluoropropyl)phenyl)-6-methylpyrimidine-4-carboxamide]
0.001 to 0.1 | CCC(F)(F)c1cccc(NC(=O)C2C(=O)N(c3cc(CC4CCCCC4)c(OC)c(-c4ccccc4)c3)N=C2C)c1 (stereo not drawn) [Compound 128, 1-(5-(cyclohexylmethyl)-6-methoxy-[1,1′-biphenyl]-3-yl)-N-(3-(1,1-difluoropropyl)phenyl)-3-methyl-5-oxo-4,5-dihydro-1H-pyrazole-4-carboxamide]
0.001 to 0.1 | COc1c(CC2CCCCC2)cc(N2N=C(C)C(C(=O)Nc3cccc(C(C)(F)F)c3)C2=O)cc1-c1ccccc1 (stereo not drawn) [Compound 129, 1-(5-(cyclohexylmethyl)-6-methoxy-[1,1′-biphenyl]-3-yl)-N-(3-(1,1-difluoroethyl)phenyl)-3-methyl-5-oxo-4,5-dihydro-1H-pyrazole-4-carboxamide]
0.001 to 0.1 | Cc1cc(C(=O)Nc2cccc(C(C)(F)F)c2)nc(-c2ccc(OC(F)F)c(-c3ccccc3)c2)n1 [Compound 130, N-(3-(1,1-difluoroethyl)phenyl)-2-(6-(difluoromethoxy)-[1,1′-biphenyl]-3-yl)-6-methylpyrimidine-4-carboxamide]
> 0.1 | Cc1nc(-c2cc(-n3cc(C(=O)Nc4cccc(C(C)(F)F)c4)c(C)n3)ccc2OC(F)F)co1 [Compound 131, N-(3-(1,1-difluoroethyl)phenyl)-1-(4-(difluoromethoxy)-3-(2-methyloxazol-4-yl)phenyl)-3-methyl-1H-pyrazole-4-carboxamide]
> 0.1 | CCC(F)(F)c1cccc(NC(=O)c2ncc(-c3ccc(OC(F)F)cc3)nc2C)c1 [Compound 132, 5-(4-(difluoromethoxy)phenyl)-N-(3-(1,1-difluoropropyl)phenyl)-3-methylpyrazine-2-carboxamide]
> 0.1 | Cc1nc(-c2ccc(OC(F)F)cc2)cnc1C(=O)Nc1cccc(C(C)(F)F)c1 [Compound 133, N-(3-(1,1-difluoroethyl)phenyl)-5-(4-(difluoromethoxy)phenyl)-3-methylpyrazine-2-carboxamide]
> 0.1 | CCC(F)(F)c1cccc(NC(=O)c2ncc(-c3ccc(OC(F)F)c(-c4ccccc4)c3)nc2C)c1 [Compound 134, 5-[4-(difluoromethoxy)-3-phenyl-phenyl]-N-[3-(1,1-difluoropropyl)phenyl]-3-methyl-pyrazine-2-carboxamide]
0.001 to 0.1 | Cc1nc(-c2ccc(OC(F)F)c(-c3ccccc3)c2)cnc1C(=O)Nc1cccc(C(C)(F)F)c1 [Compound 135, N-[3-(1,1-difluoroethyl)phenyl]-5-[4-(difluoromethoxy)-3-phenyl-phenyl]-3-methyl-pyrazine-2-carboxamide]
0.001 to 0.1 | CCC(F)(F)c1cccc(NC(=O)c2oc(-c3ccc(OC)cc3)nc2C)c1 [Compound 136, N-(3-(1,1-difluoropropyl)phenyl)-2-(4-methoxyphenyl)-4-methyloxazole-5-carboxamide]
0.001 to 0.1 | CCC(F)(F)c1cccc(NC(=O)c2cc(C)nc(-c3ccc(OC(F)F)cc3)n2)c1 [Compound 137, 2-(4-(difluoromethoxy)phenyl)-N-(3-(1,1-difluoropropyl)phenyl)-6-methylpyrimidine-4-carboxamide]
0.001 to 0.1 | Cc1nn(-c2ccc(OC(F)F)cc2)c(C2CC2)c1C(=O)Nc1cccc(C(C)(F)F)c1 [Compound 145, 5-cyclopropyl-N-[3-(1,1-difluoroethyl)phenyl]-1-[4-(difluoromethoxy)phenyl]-3-methyl-pyrazole-4-carboxamide]
0.001 to 0.1 | Cc1cc(C(=O)Nc2cccc(C(C)(F)F)c2)nc(-c2ccc(OC(F)F)cc2)n1 [Compound 147, N-(3-(1,1-difluoroethyl)phenyl)-2-(4-(difluoromethoxy)phenyl)-6-methylpyrimidine-4-carboxamide]
